Read-outs that look alike come from different tables or passages of the source. Bridge positions count the residues as written; N and C are the ends. Square brackets hold non-standard residues; d marks the D form. Peptide text beside a SMILES is read from it. 1Nal = N[C@@H](Cc1cccc2ccccc12)C(=O)O
How the values were obtained:
[1] = system: thapsigargin-induced IFN-g production in human whole blood; format: cell-based
[2] = system: thapsigargin-induced IL-2 production in human whole blood
[3] = read-out: Analogue Activity (IC50) WB/IFNg
[4] = read-out: Analogue Activity (IC50) WB/IL-2

Row | Compound | IC50 [1, 3] | IC50 [2, 4] | other results
1 | CC[C@H](C)[C@@H]1NC(=O)[C@H](CCCCN)NC(=O)[C@@H](NC(=O)[C@H](CCCCN)NC(=O)[C@@H](NC(=O)[C@H](CC(N)=O)NC(=O)[C@@H](NC(=O)[C@@H](NC(=O)[C@@H](NC(=O)CN)C(C)C)[C@@H](C)CC)[C@@H](C)CC)C(C)C)CSSC[C@@H]2NC(=O)[C@H](CCCCN)NC(=O)[C@H](C)NC(=O)[C@H](Cc3ccccc3)NC(=O)[C@H](CCCNC(=N)N)NC(=O)[C@H](CCSC)NC(=O)CNC(=O)[C@H](C)NC(=O)[C@H](CCCCN)NC(=O)[C@H](CCCCN)NC(=O)[C@@H]3CSSC[C@@H](C(=O)N[C@H](C(=O)N4CCC[C@H]4C(=O)N[C@@H](CCCCN)C(=O)O)[C@@H](C)O)NC(=O)[C@H](Cc4c[nH]cn4)NC(=O)[C@H](CSSC[C@H](NC(=O)[C@H](CCC(N)=O)NC(=O)[C@H](CCCNC(=N)N)NC(=O)[C@H](CO)NC1=O)C(=O)N[C@@H](CC(C)C)C(=O)N[C@@H](CCC(=O)O)C(=O)N1CCC[C@H]1C(=O)N3)NC(=O)[C@H](CCCCN)NC(=O)CNC(=O)[C@H](CC(N)=O)NC(=O)[C@H](CCSC)NC2=O [G26A] (H-GVIINVKCKISRQCLEPCKKAGMRFAKCMNGKCHCTPK-OH; disulfide 8-28, 14-33, 18-35) | 10.7 nM | 12.1 nM | 
2 | CC[C@H](C)[C@@H]1NC(=O)[C@H](CCCCN)NC(=O)[C@@H](NC(=O)[C@H](CCCCN)NC(=O)[C@@H](NC(=O)[C@H](CC(N)=O)NC(=O)[C@@H](NC(=O)[C@@H](NC(=O)[C@@H](NC(=O)CN)C(C)C)[C@@H](C)CC)[C@@H](C)CC)C(C)C)CSSC[C@@H]2NC(=O)[C@H](CCCCN)NC(=O)CNC(=O)[C@H](Cc3ccccc3)NC(=O)[C@H](CCCNC(=N)N)NC(=O)[C@H](CCSC)NC(=O)CNC(=O)[C@H](C)NC(=O)[C@H](CCCCN)NC(=O)[C@H](CCCCN)NC(=O)[C@@H]3CSSC[C@@H](C(=O)N[C@H](C(=O)N4CCC[C@H]4C(=O)N[C@@H](CCCCN)C(=O)O)[C@@H](C)O)NC(=O)[C@H](Cc4c[nH]cn4)NC(=O)[C@H](CSSC[C@H](NC(=O)[C@H](C)NC(=O)[C@H](CCCNC(=N)N)NC(=O)[C@H](CO)NC1=O)C(=O)N[C@@H](CC(C)C)C(=O)N[C@@H](CCC(=O)O)C(=O)N1CCC[C@H]1C(=O)N3)NC(=O)[C@H](CCCCN)NC(=O)CNC(=O)[C@H](CC(N)=O)NC(=O)[C@H](CCSC)NC2=O [Q13A] (H-GVIINVKCKISRACLEPCKKAGMRFGKCMNGKCHCTPK-OH; disulfide 8-28, 14-33, 18-35) | 0.133 nM | 0.148 nM | 
3 | CC[C@H](C)[C@@H]1NC(=O)[C@H](CCCCN)NC(=O)[C@@H](NC(=O)[C@H](CCCCN)NC(=O)[C@@H](NC(=O)[C@H](CC(N)=O)NC(=O)[C@@H](NC(=O)[C@@H](NC(=O)[C@@H](NC(=O)CN)C(C)C)[C@@H](C)CC)[C@@H](C)CC)C(C)C)CSSC[C@@H]2NC(=O)[C@H](CCCCN)NC(=O)CNC(=O)[C@H](Cc3ccccc3)NC(=O)[C@H](CCCNC(=N)N)NC(=O)[C@H](CCSC)NC(=O)CNC(=O)[C@H](C)NC(=O)[C@H](CCCCN)NC(=O)[C@H](CCCCN)NC(=O)[C@@H]3CSSC[C@@H](C(=O)N[C@H](C(=O)N4CCC[C@H]4C(=O)N[C@@H](CCCCN)C(=O)O)[C@@H](C)O)NC(=O)[C@H](Cc4c[nH]cn4)NC(=O)[C@H](CSSC[C@H](NC(=O)[C@H](CCC(N)=O)NC(=O)[C@H](CCCNC(=N)N)NC(=O)[C@H](CO)NC1=O)C(=O)N[C@@H](CC(C)C)C(=O)N[C@@H](CCC(=O)O)C(=O)N[C@@H](Cc1cccc4ccccc14)C(=O)N3)NC(=O)[C@H](CCCCN)NC(=O)CNC(=O)[C@H](CC(N)=O)NC(=O)[C@H](CCSC)NC2=O [P17Nal] (H-GVIINVKCKISRQCLE[1Nal]CKKAGMRFGKCMNGKCHCTPK-OH; disulfide 8-28, 14-33, 18-35) | 0.357 nM | 0.193 nM | 
4 | CC[C@H](C)[C@@H]1NC(=O)[C@H](CCCCN)NC(=O)[C@@H](NC(=O)[C@H](CCCCN)NC(=O)[C@@H](NC(=O)[C@H](CC(N)=O)NC(=O)[C@@H](NC(=O)[C@@H](NC(=O)[C@@H](NC(=O)CN)C(C)C)[C@@H](C)CC)[C@@H](C)CC)C(C)C)CSSC[C@@H]2NC(=O)[C@H](CCCCN)NC(=O)CNC(=O)[C@H](CCCNC(=N)N)NC(=O)[C@H](CCCNC(=N)N)NC(=O)[C@H](CCSC)NC(=O)CNC(=O)[C@H](C)NC(=O)[C@H](CCCCN)NC(=O)[C@H](CCCCN)NC(=O)[C@@H]3CSSC[C@@H](C(=O)N[C@H](C(=O)N4CCC[C@H]4C(=O)N[C@@H](CCCCN)C(=O)O)[C@@H](C)O)NC(=O)[C@H](Cc4c[nH]cn4)NC(=O)[C@H](CSSC[C@H](NC(=O)[C@H](CCC(N)=O)NC(=O)[C@H](CCCNC(=N)N)NC(=O)[C@H](CO)NC1=O)C(=O)N[C@@H](CC(C)C)C(=O)N[C@@H](CCC(=O)O)C(=O)N1CCC[C@H]1C(=O)N3)NC(=O)[C@H](CCCCN)NC(=O)CNC(=O)[C@H](CC(N)=O)NC(=O)[C@H](CCSC)NC2=O [F25R] (H-GVIINVKCKISRQCLEPCKKAGMRRGKCMNGKCHCTPK-OH; disulfide 8-28, 14-33, 18-35) | 31 nM | 25 nM | 
5 | CC[C@H](C)[C@@H]1NC(=O)[C@H](CCCCN)NC(=O)[C@@H](NC(=O)[C@H](CCCCN)NC(=O)[C@@H](NC(=O)[C@H](CC(N)=O)NC(=O)[C@@H](NC(=O)[C@H](CCC(=O)O)NC(=O)[C@@H](NC(=O)CN)C(C)C)[C@@H](C)CC)C(C)C)CSSC[C@@H]2NC(=O)[C@H](CCCCN)NC(=O)CNC(=O)[C@H](Cc3ccccc3)NC(=O)[C@H](CCCNC(=N)N)NC(=O)[C@H](CCSC)NC(=O)CNC(=O)[C@H](C)NC(=O)[C@H](CCCCN)NC(=O)[C@H](CCCCN)NC(=O)[C@@H]3CSSC[C@@H](C(=O)N[C@H](C(=O)N4CCC[C@H]4C(=O)N[C@@H](CCCCN)C(=O)O)[C@@H](C)O)NC(=O)[C@H](Cc4c[nH]cn4)NC(=O)[C@H](CSSC[C@H](NC(=O)[C@H](CCC(N)=O)NC(=O)[C@H](CCCNC(=N)N)NC(=O)[C@H](CO)NC1=O)C(=O)N[C@@H](CC(C)C)C(=O)N[C@@H](CCC(=O)O)C(=O)N1CCC[C@H]1C(=O)N3)NC(=O)[C@H](CCCCN)NC(=O)CNC(=O)[C@H](CC(N)=O)NC(=O)[C@H](CCSC)NC2=O [I3E] (H-GVEINVKCKISRQCLEPCKKAGMRFGKCMNGKCHCTPK-OH; disulfide 8-28, 14-33, 18-35) | 0.16 nM | 0.12 nM | 
6 | GVIINVKCKISRQCLEPCKKAGMRAGKCMNGKCHCTPK [Ala-25 (SEQ ID No: 1421)] |  |  | IC50 ([1]; read-out: Average IC50 IFNg): 3.08 nM; IC50 ([2]; read-out: Average IC50 IL-2): 3.08 nM
7 | CC[C@H](C)[C@@H]1NC(=O)[C@H](CCCCN)NC(=O)[C@@H](NC(=O)[C@H](CCCCN)NC(=O)[C@@H](NC(=O)[C@H](CC(N)=O)NC(=O)[C@@H](NC(=O)[C@@H](NC(=O)[C@@H](NC(=O)CN)C(C)C)[C@@H](C)CC)[C@@H](C)CC)C(C)C)CSSC[C@@H]2NC(=O)[C@H](CCCCN)NC(=O)CNC(=O)[C@H](Cc3ccccc3)NC(=O)[C@H](CCCNC(=N)N)NC(=O)[C@H](CCC(=O)O)NC(=O)CNC(=O)[C@H](C)NC(=O)[C@H](CCCCN)NC(=O)[C@H](CCCCN)NC(=O)[C@@H]3CSSC[C@@H](C(=O)N[C@H](C(=O)N4CCC[C@H]4C(=O)N[C@@H](CCCCN)C(=O)O)[C@@H](C)O)NC(=O)[C@H](Cc4c[nH]cn4)NC(=O)[C@H](CSSC[C@H](NC(=O)[C@H](CCC(N)=O)NC(=O)[C@H](CCCNC(=N)N)NC(=O)[C@H](CO)NC1=O)C(=O)N[C@@H](CC(C)C)C(=O)N[C@@H](CCC(=O)O)C(=O)N1CCC[C@H]1C(=O)N3)NC(=O)[C@H](CCCCN)NC(=O)CNC(=O)[C@H](CC(N)=O)NC(=O)[C@H](CCSC)NC2=O [M23E] (H-GVIINVKCKISRQCLEPCKKAGERFGKCMNGKCHCTPK-OH; disulfide 8-28, 14-33, 18-35) | 0.666 nM | 0.606 nM | 
8 | CC[C@H](C)[C@@H]1NC(=O)[C@H](CCCCN)NC(=O)[C@@H](NC(=O)[C@H](CCCCN)NC(=O)[C@@H](NC(=O)[C@H](CC(N)=O)NC(=O)[C@@H](NC(=O)[C@@H](NC(=O)[C@@H](NC(=O)CN)C(C)C)[C@@H](C)CC)[C@@H](C)CC)C(C)C)CSSC[C@@H]2NC(=O)[C@H](CCCCN)NC(=O)CNC(=O)[C@H](Cc3ccccc3)NC(=O)[C@H](CCCNC(=N)N)NC(=O)[C@H](CCSC)NC(=O)CNC(=O)[C@H](C)NC(=O)[C@H](CCCCN)NC(=O)[C@H](CCCNC(=N)N)NC(=O)[C@@H]3CSSC[C@@H](C(=O)N[C@H](C(=O)N4CCC[C@H]4C(=O)N[C@@H](CCCCN)C(=O)O)[C@@H](C)O)NC(=O)[C@H](Cc4c[nH]cn4)NC(=O)[C@H](CSSC[C@H](NC(=O)[C@H](CCC(N)=O)NC(=O)[C@H](CCCNC(=N)N)NC(=O)[C@H](CO)NC1=O)C(=O)N[C@@H](CC(C)C)C(=O)N[C@@H](CCC(=O)O)C(=O)N1CCC[C@H]1C(=O)N3)NC(=O)[C@H](CCCCN)NC(=O)CNC(=O)[C@H](CC(N)=O)NC(=O)[C@H](CCSC)NC2=O [K19R] (H-GVIINVKCKISRQCLEPCRKAGMRFGKCMNGKCHCTPK-OH; disulfide 8-28, 14-33, 18-35) | 0.062 nM | 0.044 nM | 
9 | CC[C@H](C)[C@@H]1NC(=O)[C@H](CCCCN)NC(=O)[C@@H](NC(=O)[C@H](CCCCN)NC(=O)[C@@H](NC(=O)[C@H](CC(N)=O)NC(=O)[C@@H](NC(=O)[C@@H](NC(=O)[C@@H](NC(=O)CN)C(C)C)[C@@H](C)CC)[C@@H](C)CC)C(C)C)CSSC[C@@H]2NC(=O)[C@H](CCCCN)NC(=O)CNC(=O)[C@H](Cc3ccccc3)NC(=O)[C@H](CCCNC(=N)N)NC(=O)[C@H](CCSC)NC(=O)CNC(=O)[C@H](C)NC(=O)[C@H](CCCCN)NC(=O)[C@H](CCCCN)NC(=O)[C@@H]3CSSC[C@@H](C(=O)N[C@H](C(=O)N4CCC[C@H]4C(=O)N[C@@H](CCCCN)C(=O)O)[C@@H](C)O)NC(=O)[C@H](Cc4c[nH]cn4)NC(=O)[C@H](CSSC[C@H](NC(=O)[C@H](CCC(N)=O)NC(=O)[C@H](CCCNC(=N)N)NC(=O)[C@H](CO)NC1=O)C(=O)N[C@@H](CC(C)C)C(=O)N[C@@H](CCC(=O)O)C(=O)N1CCC[C@H]1C(=O)N3)NC(=O)[C@H](CCCCN)NC(=O)[C@H](CCC(=O)O)NC(=O)[C@H](CC(N)=O)NC(=O)[C@H](CCSC)NC2=O [G31E] (H-GVIINVKCKISRQCLEPCKKAGMRFGKCMNEKCHCTPK-OH; disulfide 8-28, 14-33, 18-35) | 0.111 nM | 0.095 nM | 
10 | des1, V2G, R12A, E16K, K19R, K20D, H34A (GIINVKCKISAQCLKPCRDAGMRFGKCMNGKCACTPK) |  |  | IC50 ([1]; read-out: WB/IFNg (IC50)): 2.24 nM; IC50 ([2]; read-out: WB/IL-2 (IC50)): 1.5 nM
11 | GVIINVKCKISRQCLEPCKKAAMRFGKCMNGKCHCTPK [Ala-22 (SEQ ID No: 1418)] |  |  | IC50 ([1]; read-out: Average IC50 IFNg): 7.09 nM; IC50 ([2]; read-out: Average IC50 IL-2): 7.09 nM

From patent US7820623B2 (priority 2006, dated 2010)
